Experimental data published in patent publication US10479792B2, “Compounds” (GlaxoSmithKline Intellectual Property Development Limited, priority 2015, dated 2019).

What was measured:
Type in all cases: cell-based
THP-1 cells = experiment: Leishmania donovani intracellular assay (Assay 5), THP-1 cytotoxicity; conditions: human, 96 h incubation, read-out: cytotoxicity against THP-1 cells, pEC50 (converted)
Description: (§1) Assay 5. Leishmania donovani Intracellular Assay
(§2) Compounds were dispensed into black 384-well assay plates (Greiner) by acoustic dispensing (LabCyte ECHO). For potency determinations, eleven-point, one in three dilution curves were generated, with a top concentration of 50 μM. THP-1 human monocytes cells were dispensed in T225 tissue culture flasks and differentiated using 30 nM of PMA, after 24 hours they were infected overnight using Leishmania donovani expressing Green Fluorescent Protein (eGFP) amastigotes in the same T225 tissue culture flasks at a multiplicity of infection of 10. Next, any remaining free amastigotes were washed away with PBS and the infected THP-1 cells were harvested by trypsinisation. The infected cells were then plated into 384-well plates containing the compounds to be tested, at 3000 cells per well in RPMI media with 2% FBS and 25 mM Sodium bicarbonate. After 96 h incubation at 37° C. in presence of 5% CO2, the plates were fixed with 4% formaldehyde for 30 minutes, washed with PBS and stained with 0.1 mg/mL of DAPI for 30 minutes and washed again with PBS. The plates were imaged on a Perkin Elmer Opera high-content imaging system using a 20× air objective with two expositions, one for DAPI stain and other for eGFP. Images were analysed using the Acapella building blocks system (Perkin Elmer). The image analysis algorithm first identified the THP-1 nuclei followed by demarcation of the cytoplasm and identification of intracellular amastigotes. This algorithm reported mean number of parasites per THP-1 cell, the percentage of infected THP-1 cells and the total number of THP-1 cells.

Leishmania donovani [1] = experiment: Intramacrophage Leishmania donovani assay (Assay 1), average number of amastigotes per cell (potency readout); conditions: THP-1, 96 h, amastigotes in PMA-differentiated THP-1 macrophages, 96 h incubation, read-out: pEC50 value against Leishmania donovani (converted)
Description: Assay 1. Intramacrophage Leishmania donovani Assay
The intramacrophage Leishmania assay was performed using a modified version of the method described in De Rycker et al. (Antimicrob Agents Chemother. 2013 July; 57(7):2913-22. Comparison of a high-throughput high-content intracellular Leishmania donovani assay with an axenic amastigote assay. De Rycker M, Hallyburton I, Thomas J, Campbell L, Wyllie S, Joshi D, Cameron S, Gilbert I H, Wyatt P G, Frearson J A, Fairlamb A H, Gray D W.). Procedure: 350 nl of compound was pre-dispensed into 384 well sterile intermediary plates. For single point screening, amphotericin B was added to all wells of column 24 as a positive control (final concentration 2 μM) and DMSO to column 23. For potency determinations, ten-point, one in three dilution curves were created with the highest concentration being 50 μM and on each plate a control curve of amphotericin B was included. Controls were as follows: columns 11 and 12: DMSO, columns 23 and 24: amphotericin B (final concentration 2 μM). To the intermediary plates, 35 μl of THP-1 media was added and plates were shaken for >5 min to ensure complete mixing. THP-1 cells (8,000 per well, 50 μl) were plated into black clear-bottom 384 well plates (Corning) in presence of 20 nM PMA. After 20 min at RT, the plates were incubated at 37° C. under 5% CO2 in a humidified incubator for 75 h. The cells were then washed with […] sterile phosphate buffered saline (PBS) supplemented with 1 mM CaCl2, 0.5 mM MgCl2, 0.1% (w/v) bovine serum albumin (PBS-A) and amastigotes were added to all wells at a multiplicity of infection of 5 (40,000 amastigotes per well). After 40 min at RT, plates were returned to the incubator. Amastigotes were incubated in the presence of THP-1 macrophages for 16 h. Any remaining extracellular amastigotes were subsequently removed with an overflow wash of 1 mL PBS-A per well (wash buffer is being aspirated from the top of the well as it is being dispensed) followed by addition of 25 μl of the compound pre-dilutions using a Fluidx Ipette-pro pipetting station. The final dilution of each compound was 200-fold. Plates were incubated for 96 h and then washed (250 μl PBS-A) and fixed (4% (v/v) formaldehyde-PBS, 30 min, RT). After fixation, the wells were washed with 250 μl PBS, stained (10 μg/mL DAPI, 0.4 μg mL-1 HCS Cellmask Deep Red in PBS+0.1% (v/v) Triton X-100, 30 min, RT) and washed with 250 μl PBS. Finally, PBS+0.05% (v/v) thimerosal was added to the wells, the plates were sealed and imaged on a high-content microscope (GE IN Cell 2000) using a 10× objective. Image analysis was carried out with GE IN Cell Analyzer 1000 Workstation using the “Multi Target Analysis” module. Settings for segmentation were as follows: nuclei: minimum area: 142.384 μm2, sensitivity: 81, method: top-hat; cells: characteristic area: 2500 μm2, sensitivity: 60, method: multiscale top-hat; organelles (amastigotes): granule size 1-3, 3 scales, sensitivity: 90, detection in entire cell. For each well, i) THP-1 cell count (cytotoxicity readout) and ii) average number of amastigotes per cell (potency readout) were calculated, both in terms of pEC50 values.

Leishmania donovani [2] = experiment: Leishmania donovani intracellular assay (Assay 5); conditions: THP-1, 96 h, eGFP amastigotes in THP-1 cells, 96 h incubation, read-out: pEC50 value against Leishmania donovani (converted)
Description: as §1, §2

| SMILES | EC50 at 96 h (THP-1 cells) [µM] | EC50 (Leishmania donovani [1]) [µM] | EC50 (Leishmania donovani [2]) [µM] |
| --- | --- | --- | --- |
| O=C(Nc1ccc(F)c(-c2ccn3c(-c4ccccc4)cnc3n2)c1)N1CCCC1 [Example 3, N-(4-fluoro-3-(3-phenylimidazo[1,2-a]pyrimidin-7-yl)phenyl)pyrrolidine-1-carboxamide] | 12.6 to 50.1 | 0.251 to 10 | 0.126 to 10 |
| O=C(Nc1ccc(F)c(-c2ccn3c(N4CCOCC4)cnc3n2)c1)N1CC(F)(F)C1 [Example 24, 3,3-difluoro-N-(4-fluoro-3-(3-morpholinoimidazo[1,2-a]pyrimidin-7-yl)phenyl)azetidine-1-carboxamide] | – | 0.251 to 10 | 0.126 to 10 |
| CC1CN(C(=O)Nc2ccc(F)c(-c3ccn4c(N5CCOCC5)cnc4n3)c2)C1 [Example 49, N-(4-fluoro-3-(3-morpholinoimidazo[1,2-a]pyrimidin-7-yl)phenyl)-3-methylazetidine-1-carboxamide] | – | 12.6 to 20 | 0.126 to 10 |
| CC(=O)N1CCN(c2cnc3nc(-c4cc(NC(=O)N5CCCC5)ccc4F)ccn23)CC1 [Example 48, N-(3-(3-(4-acetylpiperazin-1-yl)imidazo[1,2-a]pyrimidin-7-yl)-4-fluorophenyl)pyrrolidine-1-carboxamide] | – | > 50.1 | 0.126 to 10 |
| O=C(Nc1ccc(F)c(-c2ccn3c(N4CCCOCC4)cnc3n2)c1)N1CCCC1 [Example 22, N-(3-(3-(1,4-oxazepan-4-yl)imidazo[1,2-a]pyrimidin-7-yl)-4-fluorophenyl)pyrrolidine-1-carboxamide] | – | 0.251 to 10 | 0.126 to 10 |
| CC(C)(C)OC(=O)N1CCN(c2cnc3nc(-c4cc(NC(=O)N5CCCC5)ccc4F)ccn23)CC1 [Example 35, tert-butyl 4-(7-(2-fluoro-5-(pyrrolidine-1-carboxamido)phenyl)imidazo[1,2-a]pyrimidin-3-yl)piperazine-1-carboxylate] | – | 0.251 to 10 | 0.126 to 10 |
| CN1CCOCC1c1cnc2nc(-c3cc(NC(=O)N4CCCC4)ccc3F)ccn12 (centres unmarked) [Example 43, N-(4-fluoro-3-(3-(4-methylmorpholin-3-yl)imidazo[1,2-a]pyrimidin-7-yl)phenyl)pyrrolidine-1-carboxamide] | – | 0.251 to 10 | 0.126 to 10 |
| CC1CN(c2cnc3nc(-c4cc(NC(=O)N5CCCC5)ccc4F)ccn23)CCO1 (centres unmarked) [Example 29, N-(4-fluoro-3-(3-(2-methylmorpholino)imidazo[1,2-a]pyrimidin-7-yl)phenyl)pyrrolidine-1-carboxamide] | – | 0.251 to 10 | 0.126 to 10 |
| O=C(Nc1ccc(F)c(-c2ccn3c(N4CCOCC4)cnc3n2)c1)N1CCC(F)(F)C1 [Example 25, 3,3-difluoro-N-(4-fluoro-3-(3-morpholinoimidazo[1,2-a]pyrimidin-7-yl)phenyl)pyrrolidine-1-carboxamide] | – | 12.6 to 20 | 0.126 to 10 |
| O=C(Nc1ccc(F)c(-c2ccn3c(-c4ccc(CN5CCOCC5)cc4)cnc3n2)c1)N1CCCC1 [Example 21, N-(4-fluoro-3-(3-(4-(morpholinomethyl)phenyl)imidazo[1,2-a]pyrimidin-7-yl)phenyl)pyrrolidine-1-carboxamide] | – | 0.251 to 10 | 0.126 to 10 |
| CC1COCCN1c1cnc2nc(-c3cc(NC(=O)N4CCCC4)ccc3F)ccn12 (centres unmarked) [Example 31, N-(4-fluoro-3-(3-(3-methylmorpholino)imidazo[1,2-a]pyrimidin-7-yl)phenyl)pyrrolidine-1-carboxamide] | – | 0.251 to 10 | 0.126 to 10 |
| CC(C)c1cnc2nc(-c3cc(NC(=O)N4CCCC4)ccc3F)ccn12 [Example 18, N-(4-fluoro-3-(3-isopropylimidazo[1,2-a]pyrimidin-7-yl)phenyl)pyrrolidine-1-carboxamide] | – | 0.251 to 10 | 0.126 to 10 |
| Cc1cn2c(N3CCOCC3)cnc2nc1-c1cccc(NC(=O)N2CCCC2)c1 [Example 14, N-(3-(6-methyl-3-morpholinoimidazo[1,2-a]pyrimidin-7-yl)phenyl)pyrrolidine-1-carboxamide] | – | > 50.1 | 12.6 to 39.8 |
| CC(C)(C)OC(=O)N1CCOCC1c1cnc2nc(-c3cc(NC(=O)N4CCCC4)ccc3F)ccn12 (centres unmarked) [Example 44, tert-butyl 3-(7-(2-fluoro-5-(pyrrolidine-1-carboxamido)phenyl)imidazo[1,2-a]pyrimidin-3-yl)morpholine-4-carboxylate] | – | 0.251 to 10 | 0.126 to 10 |
| O=C(Nc1cccc(-c2ccn3c(N4CCOCC4)cnc3n2)c1)N1CCCC1 [Example 1, N-(3-(3-morpholinoimidazo[1,2-a]pyrimidin-7-yl)phenyl)pyrrolidine-1-carboxamide] | – | 0.251 to 10 | 0.126 to 10 |
| Cc1cn2c(N3CCOCC3)cnc2nc1-c1cc(NC(=O)N2CCCC2)ccc1F [Example 15, N-(4-fluoro-3-(6-methyl-3-morpholinoimidazo[1,2-a]pyrimidin-7-yl)phenyl)pyrrolidine-1-carboxamide] | – | 12.6 to 20 | 12.6 to 39.8 |
| C[C@H]1CN(c2cnc3nc(-c4cc(NC(=O)N5CCCC5)ccc4F)ccn23)CCO1 [Example 40, (S)—N-(4-fluoro-3-(3-(2-methylmorpholino)imidazo[1,2-a]pyrimidin-7-yl)phenyl)pyrrolidine-1-carboxamide] | – | 0.251 to 10 | 0.126 to 10 |
| C[C@@H]1CCN(C(=O)Nc2ccc(F)c(-c3ccn4c(N5CCOCC5)cnc4n3)c2)C1 [Example 34] | – | 0.251 to 10 | 0.126 to 10 |
| CC1(C)CN(c2cnc3nc(-c4cc(NC(=O)N5CCCC5)ccc4F)ccn23)CCO1 [Example 41, N-(3-(3-(2,2-dimethylmorpholino)imidazo[1,2-a]pyrimidin-7-yl)-4-fluorophenyl)pyrrolidine-1-carboxamide] | – | 0.251 to 10 | 0.126 to 10 |
| Cc1nc(C)c(C(=O)Nc2ccc(F)c(-c3ccn4c(N5CCOCC5)cnc4n3)c2)o1 [Example 39, N-(4-fluoro-3-(3-morpholinoimidazo[1,2-a]pyrimidin-7-yl)phenyl)-2,4-dimethyloxazole-5-carboxamide] | – | 0.251 to 10 | 0.126 to 10 |
| O=C(Nc1ccc(F)c(-c2ccn3c(CN4CCOCC4)cnc3n2)c1)N1CCCC1 [Example 20, N-(4-fluoro-3-(3-(morpholinomethyl)imidazo[1,2-a]pyrimidin-7-yl)phenyl)pyrrolidine-1-carboxamide] | – | 12.6 to 20 | 0.126 to 10 |
| CCc1cc(-c2cc(NC(=O)N3CCCC3)ccc2F)nc2ncc(N3CCOCC3)n12 [Example 13, N-(3-(5-ethyl-3-morpholinoimidazo[1,2-a]pyrimidin-7-yl)-4-fluorophenyl)pyrrolidine-1-carboxamide] | – | 0.251 to 10 | 0.126 to 10 |
| C[C@@H]1CCCN1C(=O)Nc1ccc(F)c(-c2ccn3c(N4CCOCC4)cnc3n2)c1 [Example 33, N-(4-fluoro-3-(3-morpholinoimidazo[1,2-a]pyrimidin-7-yl)phenyl)-2-methylpyrrolidine-1-carboxamide] | – | 0.251 to 10 | 0.126 to 10 |
